Test results reported in US20250090502A1, “METHODS OF TREATING, AMELIORATING, AND/OR PREVENTING BACTERIAL INFECTION, OR METHODS OF REDUCING ADVERSE EFFECTS CAUSED BY BACTERIA” (Drexel University, priority 2023, published 2025).
Entries after “also recorded” stand apart in the source; their conditions may differ.

Assays:
[1] = tested on: Haemophilus influenzae; assay: Susceptibility of planktonic and biofilm H. influenzae strains to kanamycin alone and in combination with HEJ14; type: cell-based
Source text: FIG. 3A: transformation frequency of wild type (Rd) Haemophilus influenzae versus ΔRelA Rd; FIG. 3B: transformation frequency of Rd versus ΔRelA/ΔSpot Rd; FIG. 3C: planktonic treatments: no treatment (left); kanamycin treatment (middle); HEJ14+kanamycin treatment (right). Left=WT Rd; middle=ΔRelA Rd and right=ΔRelA/ΔSpot Rd. FIG. 3D: biofilm treatments: no treatment (left); kanamycin treatment (middle); HEJ14+kanamycin treatment (right). Left=WT Rd; middle=ΔRelA Rd and right=ΔRelA/ΔSpot Rd.
To study the effects of HEJ14, including the risk of resistance mutations arising, the present study constructed single gene knockouts of RelA, SpoT, and MsfI (a gene that provides for survival in phagolysosomes) as well as a double RelA/SpoT knockout in the Gram-negative bacteria Haemophilus influenzae using an overlap PCR mutagenesis strategy.
The present study then evaluated the susceptibility of both planktonic (FIG. 3C) and biofilm cells (FIG. 3D) of WT, ΔRelA and the ΔRelA/ΔSpot H. influenzae strains to kanamycin (kan) alone and in combination with HEJ14. In all cases there was a 2-3 log increase in killing by the combo treatment confirming our initial premise that RelA inhibition would potentiate standard antibiotics.

[2] = tested on: Staphylococcus aureus; assay: S. aureus in vitro growth kinetics (OD600); type: cell-based; settings: stationary phase; HEJ14 125-500 μM, 24 hours
Experimental: (§1) Cultures of a S. aureus expressing an agr-GFP reporter were incubated with vehicle (0 μM) or various concentrations of HEJ14 ([…], 250 μM, and 500 μM). The bacterial growth (OD600) and GFP signal intensity (RFU) were measured for a duration of 24 hours at 20-minute intervals. FIG. 6A: Bacterial growth (OD600).
The present study further discovered that the bacterial anti-virulence effects of HEJ14 works on the Gram-positive pathogens, as well. To determine if HEJ14 has an effect on the Gram-positive bacteria Staphylococcus aureus, the present study performed in vitro growth kinetics assays testing various HEJ14 concentrations and measuring OD600 over time.

[3] = tested on: S. aureus; assay: Hemolytic activity of S. aureus culture supernatants on sheep's blood agar; type: cell-based, Staphylococcus aureus; settings: S. aureus cultures incubated with HEJ14 (125 μM) for 24 hrs vs vehicle
Experimental: S. aureus broth cultures were incubated with vehicle or HEJ14 (125 μM) for 24 hrs. The supernatants were filter sterilized (0.2 μm) and 5 μL plated in serial dilutions on 5% sheep's blood agar, starting with V1 (vehicle treated plate) and R1 (HEJ14 treated plate).

[4] = tested on: P. aeruginosa; assay: Pyocyanin toxin production by P. aeruginosa cultures; type: cell-based; settings: P. aeruginosa culture, single agent
Source text: FIG. 4 illustrates certain aspects of the effect of HEJ14 on pyocyanin toxin production by the Gram-negative bacteria P. aeruginosa, in accordance with some embodiments. […] The bar chart illustrates the effect of HEJ14 on pyocyanin by P. aeruginosa at various HEJ14 concentrations.
Unexpectedly, the present study discovered that some of the hit compounds, as single agents, inhibited pyocyanin toxin production (FIG. 4) in the Gram-negative pathogen P. aeruginosa at higher specific activities (nanomolar) than required for RelA inhibition. Thus, the present study pursued a bipartite strategy of developing the compounds to treat biofilms, and to “convert” pathogens to commensals.

[5] = tested on: P. aeruginosa; assay: Wax worm model: larvae injected with supernatant of P. aeruginosa cultures grown with HEJ14; type: in vivo; settings: larvae injected with supernatant of cultures treated with HEJ14 during growth vs untreated culture supernatants
Experimental: (§2) FIG. 5A: HEJ14 reduced toxin production of P. aeruginosa. The label “DMSO 48 h” above the dish indicate that the larvae were injected with supernatant of P. aeruginosa culture grown with DMSO carrier only. […] Kaplan Meier Plot showing increased survival of wax worms receiving supernatant from HEJ14 treated P. aeruginosa culture. FIG. 5B: HEJ14 protected wax worm larvae from the lethality caused by P. aeruginosa infection. In FIG. 5B, larvae were injected with either live P. aeruginosa (10^5 CFU) and HEJ14, or the live bacteria and DMSO carrier only. Right dish: Larvae were injected with live P. aeruginosa (10^5 CFU) & 50 μM HEJ14. The Kaplan Meier Plot showing increased survival of wax worms receiving HEJ14 treated P. aeruginosa.
(§3) Similarly, HEJ14 protected the larvae for 48 hours when live P. aeruginosa were injected simultaneously with a single bolus of HEJ14 (FIG. 5B).

[6] = tested on: agr; assay: S. aureus agr-GFP reporter expression; type: cell-based, Staphylococcus aureus; settings: stationary phase; HEJ14 125, 250, 500 μM
Experimental: as §1
FIG. 6B: agr expression as measured by GFP signal intensity (RFU) normalized to OD600.
Since the stringent response in S. aureus induces PSMα production and agr activity is essential for psm expression, the present study used an S. aureus agr reporter strain to elucidate the effect of RelA inhibition on agr expression.

[7] = tested on: Escherichia coli C; assay: E. coli C aggregation under stress conditions; type: cell-based; settings: high salt, low temperature and amino acid starvation
Source text: Bottom panels: Micrographs of the aggregates (or the lack thereof in the case of HEJ14 treated sample).
E. coli C, when under certain stress conditions, aggregates together and forms highly robust biofilms from a planktonic culture. It was hypothesized that inhibition of RelA would limit aggregation of E. coli C.

[8] = tested on: P. aeruginosa; assay: Wax worm model: larvae injected with live P. aeruginosa and HEJ14; type: in vivo; settings: 48 hours post-injection; live P. aeruginosa (10^5 CFU) injected simultaneously with single bolus of 50 μM HEJ14
Experimental: as §2, §3

[9] = tested on: methicillin-resistant S. aureus (MRSA) (strain USA300 LAC::lux); assay: Mouse model of S. aureus intradermal infection (MRSA USA300 LAC::lux); type: in vivo, mice; settings: single dose of 125 μM or 250 μM HEJ14 at time of infection, day 3, vs vehicle, dose-dependent
Experimental: The dorsal skin surfaces of anesthetized mice were shaved; a 100 μL volume of 3×10^7 CFU of methicillin-resistant S. aureus (MRSA) (strain USA300 LAC::lux) was injected intradermally with, from left to right, vehicle, 125 μM of HEJ14, or 250 μM of HEJ14. FIG. 8A: Digital photographs of dorsal lesions. FIG. 8B: Digital bioluminescent signals of S. aureus. FIG. 8C: images from FIG. 8A were analyzed using Image J to obtain total lesion areas. FIG. 8D Images from FIG. 8B were analyzed by Image J to determine bacterial burden based on photon count.
To investigate the efficacy of a RelA inhibitor against in vivo bacterial infections, the present study employed an established mouse model of S. aureus intradermal infection with the community-associated methicillin-resistant S. aureus infections (CA-MRSA) bioluminescent strain USA300 LAC::lux (Marchitto et al., Proc Natl Acad Sci USA 2019; 116:10917-26; Alphonse et al., Sci Transl Med 2021; 13.; Wang et al., Nat Med 2007; 13:1510-4.; Dong et al., Immunity 2022; 55:1645-62.e7).

`O=C(O)Cn1cc(C[C@H]2NC(=O)NC2=O)nn1` [HEJ14, (R)-2-(4-((2,5-dioxoimidazolidin-4-yl)methyl)-1H-1,2,3-triazol-1-yl)acetic acid] was tested, and the “increase in killing by the combo treatment” value ([1]; HEJ14 in combination with kanamycin vs kanamycin alone, planktonic and biofilm cells of WT, ΔRelA and ΔRelA/ΔSpot H. influenzae) was 2-3 log, the “planktonic and biofilm H. influenzae growth” value ([1]; even in ΔRelA strains) was “able to inhibit planktonic and biofilm H. influenzae growth” and the “bacterial growth (OD600)” value [2] was “enhanced bacterial growth during the stationary phase”. The “hemolytic effect of culture supernatants on blood agar plates” value [3] was “reduced hemolytic effect”, the pyocyanin toxin production [4] was “decreased pyocyanin production” and the “P. aeruginosa virulence in the wax worm model” value [5] was “significantly reduced P. aeruginosa virulence”. The “agr expression (GFP signal normalized to OD600)” value [6] was “dose-dependent decrease in agr expression”, the “E. coli C aggregation” value [7] was “completely absent; also recorded: reduced the amount of E. coli C aggregation” and the larvae survived [8] was 95%. The “bioluminescence (in vivo bacterial burden)” value [9] was “significantly decreased” and the lesion size [9] was “significantly decreased”.
